Experimental data: patent US4123612A, “7-(5-Am ino-5-carboxyvaleramido)-3-(carbamoyoloxymethyl)-3-cephem-4-carboxylic acid” (Eli Lilly and Company, priority 1974, dated 1978)

Assays:
solubility = format: physicochemical
Escherichia coli 0127 = test: Bauer-Kirby disc diffusion, zone of inhibition; format: cell-based
Escherichia coli EC 25 = test: Bauer-Kirby disc diffusion, zone of inhibition; format: cell-based
Proteus sp. PR6 = test: Bauer-Kirby disc diffusion, zone of inhibition; format: cell-based
Proteus sp. PR7 = test: Bauer-Kirby disc diffusion, zone of inhibition; format: cell-based
[1] = test system: Klebsiella-Aerobacter KA 14; test: Bauer-Kirby disc diffusion, zone of inhibition; format: cell-based
[2] = test system: Klebsiella-Aerobacter KA 25; test: Bauer-Kirby disc diffusion, zone of inhibition; format: cell-based
Pseudomonas sp. Ps 24 = test: Bauer-Kirby disc diffusion, zone of inhibition; format: cell-based
Pseudomonas sp. Ps 30 = test: Bauer-Kirby disc diffusion, zone of inhibition; format: cell-based
[3] = test system: Staphylococcus aureus 3055; test: Bauer-Kirby disc diffusion, zone of inhibition; format: cell-based
[4] = test system: Staphylococcus aureus 3074; test: Bauer-Kirby disc diffusion, zone of inhibition; format: cell-based
Pseudomonas solanacearum = format: in vivo; conditions: 100 ppm.; 0 = no control, 4 = complete control; heavy infestation in controls
[5] = test system: Ascaris lumbricoides var. suum; test: anthelmintic evaluation in mice by treated feed, separate factors (Example 13); format: in vivo; conditions: 0.05 percent in diet, control 2.66
From the text: The feeds were utilized as diets for separate groups of mice, five mice per group. About twelve hours after initiation of the feeding, the mice were infected with Ascaris lumbricoides var. suum ova. Another group of five mice was fed the non-medicated feed to serve as a control but was similarly infected at the same time with Ascaris lumbricoides var. suum. All groups were fed their respective feed and maintained under normal laboratory conditions for a period of eight days, at which time all mice were taken off feed. On the ninth day, all mice were sacrificed and the lungs examined to determine the presence, and if present, numbers, of lesions of Ascaris lumbricoides var. suum.
In a further evaluation, the monoammonium salts of A16886I and A16886II were separately evaluated for the control of Ascaris lumbricoides var. suum. The evaluations were conducted in accordance with the procedure reported in Example 11 at a concentration in the diet of 0.05 percent.

physchem = conditions: 66% dimethylformamide-water
Salmonella typhosa SA 12 = test: Bauer-Kirby disc diffusion, zone of inhibition; conditions: Salmonella enterica
From the text: (§1) The evaluation was made on the monoammonium salts of separated factors I and II.

Salmonella typhosa SA 16 = test: Bauer-Kirby disc diffusion, zone of inhibition; conditions: Salmonella enterica
From the text: as §1

Q: What does the source list for `COC1(NC(=O)CCCC(N)C(=O)O)C(=O)N2C(C(=O)O)=C(COC(N)=O)CS[C@@H]21` (stereo partly drawn) [A16886I, 7-(5-amino-5-carboxyvaleramido)-3-(carbamoyloxymethyl)-7-methoxy-3-cephem-4-carboxylic acid]?
A: solubility in acetonitrile and other organic solvents (solubility; acetonitrile and other organic solvents): essentially insoluble; solubility in lower alkanols (solubility; lower alkanols): slightly soluble; solubility in water (solubility; water): very soluble; zone of inhibition at 0.5 µg/disc (Escherichia coli 0127; 0.5 μg./disc): 8.4 mm; zone of inhibition at 1 µg/disc (Escherichia coli 0127; 1.0 μg./disc): 12.7 mm; zone of inhibition at 2.5 µg/disc (Escherichia coli 0127; 2.5 μg./disc): 15.9 mm; zone of inhibition at 5 µg/disc (Escherichia coli 0127; 5 μg./disc): 18.6 mm; zone of inhibition at 10 µg/disc (Escherichia coli 0127; 10 μg./disc): 20.7 mm; zone of inhibition at 30 µg/disc (Escherichia coli 0127; 30 μg./disc): 25.6 mm; zone of inhibition at 0.5 µg/disc (Escherichia coli EC 25; EC25, 0.5 μg./disc): 0 mm; zone of inhibition at 1 µg/disc (Escherichia coli EC 25; EC25, 1.0 μg./disc): 0 mm; zone of inhibition at 2.5 µg/disc (Escherichia coli EC 25; EC25, 2.5 μg./disc): 9.1 mm; zone of inhibition at 5 µg/disc (Escherichia coli EC 25; EC25, 5 μg./disc): 12.5 mm; zone of inhibition at 10 µg/disc (Escherichia coli EC 25; EC25, 10 μg./disc): 15.1 mm; zone of inhibition at 30 µg/disc (Escherichia coli EC 25; EC25, 30 μg./disc): 19.6 mm; zone of inhibition at 0.5 µg/disc (Proteus sp. PR6; 0.5 μg./disc): 0 mm; zone of inhibition at 1 µg/disc (Proteus sp. PR6; 1.0 μg./disc): 9.9 mm; zone of inhibition at 2.5 µg/disc (Proteus sp. PR6; 2.5 μg./disc): 13.6 mm; zone of inhibition at 5 µg/disc (Proteus sp. PR6; 5 μg./disc): 16.7 mm; zone of inhibition at 10 µg/disc (Proteus sp. PR6; 10 μg./disc): 19 mm; zone of inhibition at 30 µg/disc (Proteus sp. PR6; 30 μg./disc): 23.2 mm; zone of inhibition at 0.5 µg/disc (Proteus sp. PR7; 0.5 μg./disc): 0 mm; zone of inhibition at 1 µg/disc (Proteus sp. PR7; 1.0 μg./disc): 0 mm; zone of inhibition at 2.5 µg/disc (Proteus sp. PR7; 2.5 μg./disc): 0 mm; zone of inhibition at 5 µg/disc (Proteus sp. PR7; 5 μg./disc): 0 mm; zone of inhibition at 10 µg/disc (Proteus sp. PR7; 10 μg./disc): 10.4 mm; zone of inhibition at 30 µg/disc (Proteus sp. PR7; 30 μg./disc): 14 mm; zone of inhibition at 0.5 µg/disc ([1]; 0.5 μg./disc): 0 mm; zone of inhibition at 1 µg/disc ([1]; 1.0 μg./disc): 7.6 mm; zone of inhibition at 2.5 µg/disc ([1]; 2.5 μg./disc): 11.4 mm; zone of inhibition at 5 µg/disc ([1]; 5 μg./disc): 15.4 mm; zone of inhibition at 10 µg/disc ([1]; 10 μg./disc): 18.8 mm; zone of inhibition at 30 µg/disc ([1]; 30 μg./disc): 23 mm; zone of inhibition at 0.5 µg/disc ([2]; 0.5 μg./disc): 0 mm; zone of inhibition at 1 µg/disc ([2]; 1.0 μg./disc): 0 mm; zone of inhibition at 2.5 µg/disc ([2]; 2.5 μg./disc): 9 mm; zone of inhibition at 5 µg/disc ([2]; 5 μg./disc): 12.3 mm; zone of inhibition at 10 µg/disc ([2]; 10 μg./disc): 15.8 mm; zone of inhibition at 30 µg/disc ([2]; 30 μg./disc): 22.1 mm; zone of inhibition at 0.5 µg/disc (Pseudomonas sp. Ps 24; SP.PS24, 0.5 μg./disc): 0 mm; zone of inhibition at 1 µg/disc (Pseudomonas sp. Ps 24; SP.PS24, 1.0 μg./disc): 10.1 mm; zone of inhibition at 2.5 µg/disc (Pseudomonas sp. Ps 24; SP.PS24, 2.5 μg./disc, * = satellite colonies within zone (Factor II)): 13.2 mm; zone of inhibition at 5 µg/disc (Pseudomonas sp. Ps 24; SP.PS24, 5 μg./disc, * = satellite colonies within zone (Factor II)): 15.7 mm; zone of inhibition at 10 µg/disc (Pseudomonas sp. Ps 24; SP.PS24, 10 μg./disc): 18.2 mm; zone of inhibition at 30 µg/disc (Pseudomonas sp. Ps 24; SP.PS24, 30 μg./disc): 23 mm; zone of inhibition at 0.5 µg/disc (Pseudomonas sp. Ps 30; SP.PS30, 0.5 μg./disc): 0 mm; zone of inhibition at 1 µg/disc (Pseudomonas sp. Ps 30; SP.PS30, 1.0 μg./disc): 0 mm; zone of inhibition at 2.5 µg/disc (Pseudomonas sp. Ps 30; SP.PS30, 2.5 μg./disc): 0 mm; zone of inhibition at 5 µg/disc (Pseudomonas sp. Ps 30; SP.PS30, 5 μg./disc): 0 mm; zone of inhibition at 10 µg/disc (Pseudomonas sp. Ps 30; SP.PS30, 10 μg./disc): 0 mm; zone of inhibition at 30 µg/disc (Pseudomonas sp. Ps 30; SP.PS30, 30 μg./disc): 0 mm; zone of inhibition at 0.5 µg/disc ([3]; 0.5 μg./disc): 0 mm; zone of inhibition at 1 µg/disc ([3]; 1.0 μg./disc): 0 mm; zone of inhibition at 2.5 µg/disc ([3]; 2.5 μg./disc): 0 mm; zone of inhibition at 5 µg/disc ([3]; 5 μg./disc): 0 mm; zone of inhibition at 10 µg/disc ([3]; 10 μg./disc): 0 mm; zone of inhibition at 30 µg/disc ([3]; 30 μg./disc): 0 mm; zone of inhibition at 0.5 µg/disc ([4]; 0.5 μg./disc): 0 mm; zone of inhibition at 1 µg/disc ([4]; 1.0 μg./disc): 0 mm; zone of inhibition at 2.5 µg/disc ([4]; 2.5 μg./disc): 0 mm; zone of inhibition at 5 µg/disc ([4]; 5 μg./disc): 0 mm; zone of inhibition at 10 µg/disc ([4]; 10 μg./disc): 0 mm; zone of inhibition at 30 µg/disc ([4]; 30 μg./disc): 0 mm; Disease Rating (Pseudomonas solanacearum): 4; Average Number of Lung Lesions Per Group [5]: 0.46; pKa (physchem; pH 6.5, pK'a1): 4.1; pKa (physchem; pH 6.5, pK'a2): 5.2; pKa (physchem; pH 6.5, pK'a3): 9.3; pKa (physchem; pH 6.5, pK'a4): 10.5; zone of inhibition at 0.5 µg/disc (Salmonella typhosa SA 12): 8 mm; zone of inhibition at 1 µg/disc (Salmonella typhosa SA 12): 11.3 mm; zone of inhibition at 2.5 µg/disc (Salmonella typhosa SA 12): 16.9 mm; zone of inhibition at 5 µg/disc (Salmonella typhosa SA 12): 19.9 mm; zone of inhibition at 10 µg/disc (Salmonella typhosa SA 12): 22.8 mm; zone of inhibition at 30 µg/disc (Salmonella typhosa SA 12): 27.2 mm; zone of inhibition at 0.5 µg/disc (Salmonella typhosa SA 16): 0 mm; zone of inhibition at 1 µg/disc (Salmonella typhosa SA 16): 9.3 mm; zone of inhibition at 2.5 µg/disc (Salmonella typhosa SA 16): 13.1 mm; zone of inhibition at 5 µg/disc (Salmonella typhosa SA 16): 16.2 mm; zone of inhibition at 10 µg/disc (Salmonella typhosa SA 16): 19.6 mm; zone of inhibition at 30 µg/disc (Salmonella typhosa SA 16): 24.2 mm
